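Protocol summary: plate cells (96-well), add compound at 5 concentrations, incubate 48 h, interpolate endpoints linearly. At the TGI there is no net growth.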
Columns and labels:
Assay in all cases: NCI anticancer screen, dose series, 48 h
HCT-116 colon = test system: HCT-116 colon
SN12C renal = test system: SN12C renal
HOP-92 NSCLC = test system: HOP-92 NSCLC
NCI-H460 lung = test system: NCI-H460 lung
HL-60(TB) leukemia = test system: HL-60(TB) leukemia
HS 578T breast = test system: HS 578T breast
RPMI-8226 leukemia = test system: RPMI-8226 leukemia
SF-268 CNS = test system: SF-268 CNS
MDA-MB-435 = test system: MDA-MB-435
OVCAR-3 ovarian = test system: OVCAR-3 ovarian
DU-145 prostate = test system: DU-145 prostate

COc1cc2cc(C(=O)N3CC(CCl)c4c3cc([N+](C)(C)Cc3ccc([N+](=O)[O-])n3C)c3ccccc43)[nH]c2c(OC)c1OC (stereo unspecified)
TGI (HCT-116 colon): 6.92 µM | TGI (SN12C renal): > 62.4 µM | TGI (HOP-92 NSCLC): 6.26 µM | TGI (NCI-H460 lung): 5.41 µM | TGI (HL-60(TB) leukemia): 8.16 µM | TGI (HS 578T breast): 38.2 µM | TGI (RPMI-8226 leukemia): 8.31 µM | TGI (SF-268 CNS): > 100 µM | TGI (MDA-MB-435): 60.7 µM | TGI (OVCAR-3 ovarian): > 100 µM | TGI (DU-145 prostate): 23.8 µM

— PubChem BioAssay (NCI)
